Patent publication US20170184604A1, “DD1ALPHA RECEPTOR AND USES THEREOF IN IMMUNE DISORDERS” (THE GENERAL HOSPITAL CORPORATION, priority 2014, published 2017)

Experiments:
human CD8+ T cells = experiment: Human T cell activation assay (CFSE proliferation); format: cell-based; conditions: various concentrations with 3 μg/ml anti-CD3
Protocol: (FIG. 5A) DD1α inhibits the activation of human CD4+ T cells and CD8+ T cells. Enriched human CD4+ T cells and CD8+ T cells were stained with CFSE (1 μM) and stimulated with plate-bound anti-CD3 antibody (3 μg/ml) together with 2, 5, or 10 μg/ml of DD1α-Ig proteins or control Ig proteins. The proliferations of CD4+ T or CD8+ T cells were determined by the percentages of CFSE-labeled CD4+ T or CD8+ T cells at the 72-hour culture. The levels of cytokines IFN-γ and TNF-α in culture supernatant were analyzed by ELISA at the 48-hour culture. (FIG. 5B) DD1α-mediated inhibition of T cell activation is modulated by α-PD1 antibodies. […] The proliferation and cytokine production of CD4+ T cells were determined as FIG. 5A. […] The proliferations of CD4+ T cells were determined by percentage of CFSE-diluted CD4+ cells on day 3. The levels of cytokines IFN-γ and IL-2 in culture supernatant were analyzed by ELISA on day 2. (FIG. 5D) DD1α mediates Foxp3+ iTreg cell development. […]
The amount of Ig protein was kept constant at 10 μg/ml by the addition of control Ig protein. […] On day 3, cells were stained with anti-CD4-APC (OKT4, eBioscience for human CD4+ T cells; RM4-5, eBioscience for mouse CD4+ T cells) or anti-CD8-APC (SK1, eBioscience for human CD8+ T cells; 53-6.7, eBioscience for mouse CD8+ T cells) and then analyzed for CFSE dilution by flow cytometry.

DD1α = experiment: Homophilic interaction assay (Ig protein-coated beads on transfected 293T cells); format: binding, human
Protocol: (FIG. 3A) Defective apoptotic cell engulfment of DD1α−/− m-BMDMs. Engulfments of Wt and DD1α−/− apoptotic thymocytes by Wt and DD1α−/− BMDMs were assessed by flow cytometry as described previously. The pHrodo-labeled apoptotic thymocytes were incubated with m-BMDMs for 30 min and the phagocytosis was determined by measuring the positive pHrodo-containing macrophages. Graph represents mean±SD from three independent experiments. (FIG. 3B) Homophilic DD1α interaction. […] The binding was examined under an inverted microscope (left panels) and also determined from the optical density (O.D.) at 492 nm (shown at the right). […] Binding was determined by counting the bound cells per 100 μm^2 and normalized by cell number bound to untreated plate. […] The bead bound His-DD1α (33-194) proteins were eluted and detected by immunoblotting using anti-His antibody. […] DD1α-transfected cells were treated or untreated with 1 mM bis(maleinido)hexane (BMH) for 1 hour, and DD1α protein was analyzed by western blotting under non-reducing condition. […] The phagocytosis of MCF7/DD1α KD cells expressing empty vector (EV), DD1α or DD1α-ΔIgV was determined as in FIG. 2A. […]

Substance: DD1α-Ig: the extracellular region of DD1α fused with the immunoglobulin G Fc segment
- CD8+ T cell proliferation stimulated by anti-CD3 (human CD8+ T cells): strongly inhibited
- binding to IgV domain-deleted mutant DD1α on the cell surface (DD1α; 293 cells transfected with mutant-DD1α (IgV domain-deletion)): abolished this interaction
- binding to complete DD1α proteins expressed on the cell surface (DD1α; 293 cells transfected with wt-DD1α): bound
